Test results as given in paper PMC7782793, “Hydroxamic acid-modified peptide microarrays for profiling isozyme-selective interactions and inhibition of histone deacetylases” (Nature Communications, 2021).
Residues, ends and D or L forms follow the SMILES beside them.

What was measured:
Experiment in all cases: Recombinant HDAC µSPOT microarray binding assay;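 on Bottom (Value): Cellulose-bound peptide spots on slides incubated with six HDAC enzyme concentrations, binding intensity read, four-parameter variable-slope fit, EC50 is enzyme concentration giving half-maximal binding, in HEPES buffer pH 7.4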;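 on Bottom (dose-response curve fit): peptide spots on cellulose slides incubated with rising HDAC enzyme concentrations, imaged together, four-parameter logistic fit, EC50 is enzyme concentration giving half-maximal binding signal, two experiments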;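 on Bottom (dose-response fit): slides with spotted peptides incubated with six HDAC concentrations in HEPES buffer pH 7.4, spot intensities fitted by four-parameter logistic, EC50 as enzyme concentration giving half-maximal binding signal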;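 on Bottom: relative spot intensity from the six enzyme-concentration slides imaged together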;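 on HillSlope (Value): Cellulose-bound peptide spots on slides incubated with six HDAC enzyme concentrations, binding intensity read, four-parameter variable-slope fit, EC50 is enzyme concentration giving half-maximal binding, in HEPES buffer pH 7.4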;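 on Top (Value): Cellulose-bound peptide spots on slides incubated with six HDAC enzyme concentrations, binding intensity read, four-parameter variable-slope fit, EC50 is enzyme concentration giving half-maximal binding, in HEPES buffer pH 7.4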;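 on Top (dose-response curve fit): peptide spots on cellulose slides incubated with rising HDAC enzyme concentrations, imaged together, four-parameter logistic fit, EC50 is enzyme concentration giving half-maximal binding signal, two experiments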;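 on Top (dose-response fit): slides with spotted peptides incubated with six HDAC concentrations in HEPES buffer pH 7.4, spot intensities fitted by four-parameter logistic, EC50 as enzyme concentration giving half-maximal binding signal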;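 on Top: relative spot intensity from the six enzyme-concentration slides imaged together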
HDAC8 = target: T1, HDAC8 (Homo sapiens, UniProt Q9BY41); settings: HDAC8 µSPOT microarray dose-response fit, X = Asuha, sheet Fig. 3 HDAC8; for Bottom: Bottom Value; for HillSlope: HillSlope Value; for Top: Top Value;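 on Bottom: relative spot intensity from the six enzyme-concentration slides imaged together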;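 on Top: relative spot intensity from the six enzyme-concentration slides imaged together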;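 on all read-outs here: peptide µSPOT slides incubated with varying HDAC enzyme concentrations, imaged signal intensity fitted by four-parameter variable-slope regression, EC50 is enzyme concentration giving half-maximal binding, pH 7.4 HEPES buffer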
T1 construct: HDAC8 (full length, C-terminal His tag, BPS Bioscience, cat. #: 50008); purchased BPS Bioscience 50008
T1 sequence (Q9BY41 1-377): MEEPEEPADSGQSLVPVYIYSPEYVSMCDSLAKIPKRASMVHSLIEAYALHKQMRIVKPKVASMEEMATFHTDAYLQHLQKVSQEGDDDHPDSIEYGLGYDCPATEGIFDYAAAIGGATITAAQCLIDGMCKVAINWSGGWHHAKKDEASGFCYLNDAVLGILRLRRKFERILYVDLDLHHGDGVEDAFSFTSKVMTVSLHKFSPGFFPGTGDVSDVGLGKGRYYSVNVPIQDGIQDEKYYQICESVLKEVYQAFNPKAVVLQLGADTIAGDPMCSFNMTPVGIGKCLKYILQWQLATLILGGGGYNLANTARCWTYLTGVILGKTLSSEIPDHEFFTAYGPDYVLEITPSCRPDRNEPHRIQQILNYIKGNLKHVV
Description: Experiments were performed twice, data were obtained with Array Analyze software (Active Motif), and data analysis and representation were performed with the GraphPad Prism 7 software. Outliers were curated manually and data were fitted to nonlinear regression [log(agonist) vs. response—variable slope (four parameters)]. […] Non-sigmoidal curves were denoted as not determined (N.D.) The pEC50 values were determined as the concentration of HDAC enzyme required for half-maximal binding signal.

HDAC2 = target: T2, HDAC2 (Homo sapiens, UniProt Q92769); settings: HDAC2 microarray dose-response curve fit, X = Asuha, sheet Fig. 3 HDAC2; for Bottom (Value): bottom plateau; for Top (Value): top plateau;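 on all read-outs here: Cellulose-bound peptide spots on slides incubated with six HDAC enzyme concentrations, binding intensity read, four-parameter variable-slope fit, EC50 is enzyme concentration giving half-maximal binding, in HEPES buffer pH 7.4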
T2 construct: HDAC2 (full length, C-terminal His tag, BPS Bioscience, cat. #: 50002); purchased BPS Bioscience 50002
T2 sequence (Q92769 whole entry): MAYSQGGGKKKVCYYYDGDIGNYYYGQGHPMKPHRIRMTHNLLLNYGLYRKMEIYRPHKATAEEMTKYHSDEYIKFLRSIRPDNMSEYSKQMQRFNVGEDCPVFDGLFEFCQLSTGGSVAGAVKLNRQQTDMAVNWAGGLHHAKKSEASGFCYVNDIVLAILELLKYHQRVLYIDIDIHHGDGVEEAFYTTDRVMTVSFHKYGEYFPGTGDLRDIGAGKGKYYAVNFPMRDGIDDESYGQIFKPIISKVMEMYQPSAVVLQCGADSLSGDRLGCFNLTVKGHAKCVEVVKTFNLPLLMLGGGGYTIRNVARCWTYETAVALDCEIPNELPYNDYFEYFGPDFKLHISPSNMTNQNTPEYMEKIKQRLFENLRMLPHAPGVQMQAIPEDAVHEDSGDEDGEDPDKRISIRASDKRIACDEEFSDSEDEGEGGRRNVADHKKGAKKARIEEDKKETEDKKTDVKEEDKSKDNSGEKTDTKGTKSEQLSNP

HDAC1 = target: T3, HDAC1 (Homo sapiens, UniProt Q13547); settings: µSPOT microarray, recombinant HDAC1, Fig. 3, X = Asuha; for HillSlope: Hill slope of the binding curve; for Bottom (dose-response fit): fitted bottom plateau of the binding curve; for Top (dose-response fit): fitted top plateau of the binding curve;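 on all read-outs here: slides with spotted peptides incubated with six HDAC concentrations in HEPES buffer pH 7.4, spot intensities fitted by four-parameter logistic, EC50 as enzyme concentration giving half-maximal binding signal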
T3 construct: HDAC1 (full length, C-terminal His tag, C-terminal FLAG tag, BPS Bioscience, cat. #: 50051); FLAG (C); purchased BPS Bioscience 50051
T3 sequence (Q13547 whole entry): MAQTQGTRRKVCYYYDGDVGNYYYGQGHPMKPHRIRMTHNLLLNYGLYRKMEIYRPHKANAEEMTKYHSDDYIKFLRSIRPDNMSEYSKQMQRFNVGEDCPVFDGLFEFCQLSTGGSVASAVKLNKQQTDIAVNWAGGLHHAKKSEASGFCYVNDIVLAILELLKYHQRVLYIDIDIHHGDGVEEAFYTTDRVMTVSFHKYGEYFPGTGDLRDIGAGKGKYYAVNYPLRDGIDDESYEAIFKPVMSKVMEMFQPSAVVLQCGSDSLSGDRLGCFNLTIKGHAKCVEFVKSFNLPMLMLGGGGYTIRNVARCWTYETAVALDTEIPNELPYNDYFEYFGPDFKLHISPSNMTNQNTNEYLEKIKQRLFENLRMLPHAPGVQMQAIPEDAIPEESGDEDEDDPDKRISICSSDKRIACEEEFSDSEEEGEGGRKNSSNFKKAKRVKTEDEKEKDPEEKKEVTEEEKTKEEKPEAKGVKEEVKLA

HDAC3/NCoR2 = target: T4, HDAC3/NCoR2 (Homo sapiens, UniProt O15379); settings: HDAC3 µSPOT microarray, Fig. 3, X = Asuha; for HillSlope: Hill slope of dose-response fit; for Bottom (dose-response curve fit): fitted bottom plateau of binding signal; for Top (dose-response curve fit): fitted top plateau of binding signal;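 on all read-outs here: peptide spots on cellulose slides incubated with rising HDAC enzyme concentrations, imaged together, four-parameter logistic fit, EC50 is enzyme concentration giving half-maximal binding signal, two experiments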
T4 construct: HDAC3/NCoR2 (full length, C-terminal His tag, NCoR2 N-terminal GST tag); purchased BPS Bioscience 50003
T4 sequence (O15379 whole entry): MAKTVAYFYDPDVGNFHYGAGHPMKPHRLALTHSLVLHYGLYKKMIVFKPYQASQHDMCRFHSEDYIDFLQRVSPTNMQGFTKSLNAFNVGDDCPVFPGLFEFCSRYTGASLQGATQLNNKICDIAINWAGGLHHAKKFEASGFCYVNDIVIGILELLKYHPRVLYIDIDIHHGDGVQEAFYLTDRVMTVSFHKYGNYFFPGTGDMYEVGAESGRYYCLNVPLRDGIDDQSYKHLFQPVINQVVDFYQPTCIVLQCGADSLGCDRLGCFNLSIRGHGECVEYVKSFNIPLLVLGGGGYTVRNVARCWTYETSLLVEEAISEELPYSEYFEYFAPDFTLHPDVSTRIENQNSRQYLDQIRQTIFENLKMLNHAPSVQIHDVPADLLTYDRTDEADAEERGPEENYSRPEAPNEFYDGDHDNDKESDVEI
T4 sequence (Q9Y618 389-480 partner limits assumed): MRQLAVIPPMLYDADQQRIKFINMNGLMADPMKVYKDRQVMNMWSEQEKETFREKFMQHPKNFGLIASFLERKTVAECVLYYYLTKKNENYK

Row | Molecule | Bottom (HDAC8) | HillSlope (HDAC8) | Top (HDAC8) | Bottom (Value) (HDAC2) | Top (Value) (HDAC2) | HillSlope (Value) (HDAC2) | HillSlope (HDAC1) | Bottom (dose-response fit) (HDAC1) | Top (dose-response fit) (HDAC1) | HillSlope (HDAC3/NCoR2) | Bottom (dose-response curve fit) (HDAC3/NCoR2) | Top (dose-response curve fit) (HDAC3/NCoR2)
1 | CC[C@H](C)[C@H](NC(=O)[C@H](C)NC(=O)[C@H](CC(C)C)NC(=O)[C@H](CCC(N)=O)NC(=O)[C@H](CC(C)C)NC(=O)[C@H](Cc1c[nH]cn1)NC(=O)[C@H](CCCNC(=N)N)NC(=O)[C@@H]1CCCN1C(=O)[C@@H](NC(=O)[C@@H](NC(=O)[C@H](CCCNC(=N)N)NC(=O)[C@@H](NC(C)=O)[C@@H](C)O)[C@@H](C)CC)[C@@H](C)CC)C(=O)N[C@@H](CCCNC(=N)N)C(=O)N[C@@H](CC(N)=O)C(=O)N[C@@H](CC(=O)O)C(=O)N[C@@H](CCC(=O)O)C(N)=O [H2A 76-91] (Ac-TRIIPRHLQLAIRNDE-NH2) | 0.03 | 7.33 | 0.15 | 0.03 | 73.18 | 0.93 | 0.92 | 0.02 | 2.64 | 1.12 | 0.01 | 1.3
2 | H2B 58-73 (AMGIMNSFVNDIFERI; UniProt P06899 59-74, looked up, fragment) | 0.01 | 0.19 | 6.07 | 0.03 | 0.16 | 2.23 | 0.92 | 0.02 | 1.87 | 1.96 | 0.02 | 0.22
3 | CC[C@H](C)[C@H](NC(=O)[C@H](CCC(=O)O)NC(=O)[C@H](CCCNC(=N)N)NC(=O)[C@H](CO)NC(=O)[C@@H](NC(=O)[C@@H](NC(=O)[C@@H](NC(C)=O)[C@@H](C)O)[C@@H](C)CC)[C@@H](C)O)C(=O)N[C@@H](CCC(N)=O)C(=O)N[C@H](C(=O)N[C@@H](C)C(=O)N[C@H](C(=O)N[C@@H](CCCNC(=N)N)C(=O)N[C@@H](CC(C)C)C(=O)N[C@@H](CC(C)C)C(=O)N[C@@H](CC(C)C)C(=O)N1CCC[C@H]1C(N)=O)C(C)C)[C@@H](C)O [H2B 88-103] (Ac-TITSREIQTAVRLLLP-NH2) | 0.03 | 10.85 | 0.09 | 0.04 | 0.21 | 1.75 | 1.19 | 0.05 | 1.11 | 1.33 | 0.01 | 0.74
4 | H2A 100-115 (VTIAQGGVLPNIQAVL; UniProt P0C0S8 101-116, looked up, fragment) | 0.02 | 0.63 | 7.44 | 0.02 | 9.23 | 0.88 | 1.46 | 0.02 | 0.26 | 1.35 | 0 | 0.72
